Data from US9770397B2, “Oxidative dyeing composition” (KAO GERMANY GMBH, priority 2012, dated 2017).

System: scalp
Experiment: monadic use test for scalp compatibility and mildness
Parameters: species or system consumers
Details: in vivo
Description: The above compositions were tested in a monadic use test for scalp compatibility and mildness. Both compositions were used to dye hair of 30 consumers each having shoulder length hair. The composition was mixed with a composition comprising 6% hydrogen peroxide at a weight ratio of 1 to 1 and applied onto hair and processed for 30 min at a temperature of 40° C. and rinsed off. It was observed that both composition colour hair in the same way to the same colour direction. The following observations were made on scalp irritation.

Q: Which “mildness and scalp compatibility of hair dyeing composition (conclusion in words)” value does the source give for `O=C(CCc1ccc(O)cc1)Nc1ccccc1C(=O)O` [hydroxyphenyl propamidobenzoic acid, Hydroxyphenyl propamidobenzoic acid] here?
A: improved mildness of hair dyeing composition and improved scalp compatibility
